According to ChEMBL document CHEMBL1201862, “PubChem BioAssay data set” (2004):
Calls of active or inactive are those of the source.

How the values were obtained:
[1] = tested on: Streptococcus sp. 'group A'; assay: Streptococcus pyogenes SK(-)GAS viability under kanamycin – luminescence, BacTiterGlo, confirmation, counter-screen for streptokinase expression inhibitor project, dose response (AID 1900); format: functional, organism-based
Streptokinase A = target: T1, Streptokinase A (Streptococcus pyogenes serotype M1, UniProt P10520); assay: viability-normalized secreted streptokinase activity reduction – plasminogen activation absorbance, OD405, dose response (AID 1914); format: functional, Streptococcus pyogenes M1 GAS;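 also: secreted streptokinase activity via plasminogen activation per viability signal from cell pellet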
T1 sequence (P10520 whole entry): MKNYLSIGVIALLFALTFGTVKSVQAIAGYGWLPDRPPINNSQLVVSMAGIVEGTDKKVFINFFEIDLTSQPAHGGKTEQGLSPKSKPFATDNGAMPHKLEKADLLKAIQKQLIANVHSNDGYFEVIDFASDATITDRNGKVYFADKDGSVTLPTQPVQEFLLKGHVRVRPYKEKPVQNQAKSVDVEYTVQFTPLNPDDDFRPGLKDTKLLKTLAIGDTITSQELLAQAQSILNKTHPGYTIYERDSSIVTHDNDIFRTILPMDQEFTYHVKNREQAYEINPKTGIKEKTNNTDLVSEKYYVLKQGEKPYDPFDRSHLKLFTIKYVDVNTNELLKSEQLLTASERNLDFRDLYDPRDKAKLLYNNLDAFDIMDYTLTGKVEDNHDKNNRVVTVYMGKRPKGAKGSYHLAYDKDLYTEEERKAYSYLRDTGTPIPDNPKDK

Streptococcus = assay: GAS UMAA2166 growth inhibition – luminescence, BacTiterGlo, counter-screen for streptokinase expression inhibitor project, dose response (AID 1915); format: functional, organism-based;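 also: potency for reduction of bacterial viability or growth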
[2] = target: T2, Methionyl-tRNA synthetase, putative (Trypanosoma brucei brucei, UniProt Q38C91); format: functional, Trypanosoma brucei brucei strain 927/4 GUTat10.1
T2 sequence (Q38C91 whole entry): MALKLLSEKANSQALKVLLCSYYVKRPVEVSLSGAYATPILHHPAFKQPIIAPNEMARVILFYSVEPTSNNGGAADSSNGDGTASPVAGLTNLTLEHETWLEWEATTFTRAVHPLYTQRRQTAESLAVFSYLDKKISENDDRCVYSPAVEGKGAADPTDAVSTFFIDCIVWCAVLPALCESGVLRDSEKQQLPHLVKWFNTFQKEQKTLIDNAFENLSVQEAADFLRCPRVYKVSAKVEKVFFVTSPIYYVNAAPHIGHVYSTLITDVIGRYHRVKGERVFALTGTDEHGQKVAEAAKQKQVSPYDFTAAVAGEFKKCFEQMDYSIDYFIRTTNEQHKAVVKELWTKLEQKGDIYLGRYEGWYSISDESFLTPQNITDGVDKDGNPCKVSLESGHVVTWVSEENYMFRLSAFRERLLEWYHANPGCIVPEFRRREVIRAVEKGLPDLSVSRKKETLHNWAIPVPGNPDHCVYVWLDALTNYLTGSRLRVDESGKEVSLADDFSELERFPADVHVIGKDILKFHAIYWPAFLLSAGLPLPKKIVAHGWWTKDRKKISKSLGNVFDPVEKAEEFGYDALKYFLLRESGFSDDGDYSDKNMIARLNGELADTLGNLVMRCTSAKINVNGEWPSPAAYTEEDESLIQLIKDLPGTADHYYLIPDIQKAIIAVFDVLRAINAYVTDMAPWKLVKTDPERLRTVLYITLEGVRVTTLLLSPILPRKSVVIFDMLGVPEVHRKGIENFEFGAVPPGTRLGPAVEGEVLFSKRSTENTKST

[3] = Counterscreen for inhibitors of Trypanosoma brucei methionyl tRNA synthetase (MetRS): Luminescence-based cell-based high throughput dose response assay to identify compounds that are cytotoxic to Jurkat human T lymphocyte cells.; format: functional
[4] = target: T2, Methionyl-tRNA synthetase, putative; format: functional, Trypanosoma brucei brucei strain 927/4 GUTat10.1; remark: listed apart in the source
[5] = target: T3, Carboxy-terminal domain RNA polymerase II polypeptide A small phosphatase 1 (Homo sapiens, UniProt Q9GZU7); assay: CTDSP1 inhibitors, concentration-response, biochemical, absorbance readout, ultra-high-throughput screen actives (AID 540297); format: functional
T3 sequence (Q9GZU7 whole entry): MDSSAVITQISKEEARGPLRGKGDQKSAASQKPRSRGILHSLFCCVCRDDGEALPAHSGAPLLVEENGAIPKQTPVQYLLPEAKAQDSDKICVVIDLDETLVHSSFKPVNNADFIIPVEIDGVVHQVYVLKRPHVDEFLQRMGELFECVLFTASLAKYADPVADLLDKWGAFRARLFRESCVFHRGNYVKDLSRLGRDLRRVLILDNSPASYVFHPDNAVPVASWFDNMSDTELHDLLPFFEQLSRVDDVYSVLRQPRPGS

[6] = target: Tyrosine-protein phosphatase non-receptor type 11 (Homo sapiens, UniProt Q06124); assay: PTPN11 enzyme inhibitors – biochemical, selectivity assay for STEP inhibitor project, dose response (AID 602367); format: functional; conditions: read-out: IC50_Mean
[7] = target: Tyrosine-protein phosphatase non-receptor type 5 (Homo sapiens, UniProt P54829); assay: PTPN5 enzyme inhibition – biochemical, fluorescence intensity, uHTS hits, confirmation (AID 602372); format: functional; conditions: read-out: IC50_Mean
[8] = target: Dual specificity protein phosphatase 3 (Homo sapiens, UniProt P51452); assay: VHR phosphatase inhibition, dose response, selectivity assay for STEP inhibitor project, biochemical (AID 602374); format: functional; conditions: read-out: IC50_Mean
Caspase-6 = target: T4, Caspase-6 (Homo sapiens, UniProt P55212); assay: inhibition of CASP6 peptide cleavage – biochemical, VEID-R110 fluorescence, cherry-pick, dose response (AID 720632)
T4 sequence (P55212 whole entry): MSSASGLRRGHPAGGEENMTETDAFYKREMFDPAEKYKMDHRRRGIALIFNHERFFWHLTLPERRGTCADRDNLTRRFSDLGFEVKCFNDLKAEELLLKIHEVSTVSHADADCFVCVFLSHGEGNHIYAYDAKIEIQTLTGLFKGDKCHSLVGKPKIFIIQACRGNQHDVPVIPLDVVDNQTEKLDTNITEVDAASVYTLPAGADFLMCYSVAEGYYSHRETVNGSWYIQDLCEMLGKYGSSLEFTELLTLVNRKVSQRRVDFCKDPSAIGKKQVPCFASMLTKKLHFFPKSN

[9] = target: T5, Low molecular weight phosphotyrosine protein phosphatase (Homo sapiens, UniProt P24666); format: functional; conditions: read-out: IC50_Mean
T5 sequence (P24666 whole entry): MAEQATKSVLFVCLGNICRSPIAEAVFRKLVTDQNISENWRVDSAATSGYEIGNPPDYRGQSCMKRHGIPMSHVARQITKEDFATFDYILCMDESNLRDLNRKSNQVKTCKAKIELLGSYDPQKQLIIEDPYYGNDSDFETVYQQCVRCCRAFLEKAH

[10] = target: T5, Low molecular weight phosphotyrosine protein phosphatase; format: functional; conditions: read-out: IC50_Mean; remark: listed apart in the source
[11] = target: Photoreceptor-specific nuclear receptor (Homo sapiens, UniProt Q9Y5X4); format: functional, cell-based;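 also: CHO-S cells with Gal4-NCOR and VP16-NR2E3 two-hybrid luciferase reporter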
Chain of Photoreceptor-specific nuclear receptor (Q9Y5X4 whole entry, the tested form may be a part): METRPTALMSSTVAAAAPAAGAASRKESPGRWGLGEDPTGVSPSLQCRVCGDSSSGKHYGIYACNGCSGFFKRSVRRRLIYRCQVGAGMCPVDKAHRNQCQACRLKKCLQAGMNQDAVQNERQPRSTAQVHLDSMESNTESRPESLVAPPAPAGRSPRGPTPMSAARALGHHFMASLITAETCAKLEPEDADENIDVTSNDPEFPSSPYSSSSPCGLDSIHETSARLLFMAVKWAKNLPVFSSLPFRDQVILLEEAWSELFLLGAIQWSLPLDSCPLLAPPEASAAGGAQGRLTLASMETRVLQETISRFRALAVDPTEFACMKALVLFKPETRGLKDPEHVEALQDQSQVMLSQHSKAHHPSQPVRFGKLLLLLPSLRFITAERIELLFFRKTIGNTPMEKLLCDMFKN

Chain of Tyrosine-protein phosphatase non-receptor type 11 (Q06124 whole entry): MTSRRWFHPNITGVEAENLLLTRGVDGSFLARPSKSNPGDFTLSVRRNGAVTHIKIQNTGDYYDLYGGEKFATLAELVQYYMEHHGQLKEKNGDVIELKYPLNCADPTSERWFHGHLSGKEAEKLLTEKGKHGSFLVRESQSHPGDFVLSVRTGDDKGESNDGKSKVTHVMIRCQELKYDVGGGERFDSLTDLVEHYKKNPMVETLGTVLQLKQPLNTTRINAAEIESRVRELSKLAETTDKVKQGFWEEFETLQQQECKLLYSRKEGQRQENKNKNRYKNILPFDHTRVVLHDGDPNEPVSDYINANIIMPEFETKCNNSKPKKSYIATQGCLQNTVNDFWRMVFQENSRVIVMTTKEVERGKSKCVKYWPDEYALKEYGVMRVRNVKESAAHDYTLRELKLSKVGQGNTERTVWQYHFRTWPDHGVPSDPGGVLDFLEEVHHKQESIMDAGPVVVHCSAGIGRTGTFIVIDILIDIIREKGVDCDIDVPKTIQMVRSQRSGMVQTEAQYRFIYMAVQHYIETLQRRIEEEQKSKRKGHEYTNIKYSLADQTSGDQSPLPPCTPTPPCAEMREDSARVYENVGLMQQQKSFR
Chain of Tyrosine-protein phosphatase non-receptor type 5 (P54829 whole entry): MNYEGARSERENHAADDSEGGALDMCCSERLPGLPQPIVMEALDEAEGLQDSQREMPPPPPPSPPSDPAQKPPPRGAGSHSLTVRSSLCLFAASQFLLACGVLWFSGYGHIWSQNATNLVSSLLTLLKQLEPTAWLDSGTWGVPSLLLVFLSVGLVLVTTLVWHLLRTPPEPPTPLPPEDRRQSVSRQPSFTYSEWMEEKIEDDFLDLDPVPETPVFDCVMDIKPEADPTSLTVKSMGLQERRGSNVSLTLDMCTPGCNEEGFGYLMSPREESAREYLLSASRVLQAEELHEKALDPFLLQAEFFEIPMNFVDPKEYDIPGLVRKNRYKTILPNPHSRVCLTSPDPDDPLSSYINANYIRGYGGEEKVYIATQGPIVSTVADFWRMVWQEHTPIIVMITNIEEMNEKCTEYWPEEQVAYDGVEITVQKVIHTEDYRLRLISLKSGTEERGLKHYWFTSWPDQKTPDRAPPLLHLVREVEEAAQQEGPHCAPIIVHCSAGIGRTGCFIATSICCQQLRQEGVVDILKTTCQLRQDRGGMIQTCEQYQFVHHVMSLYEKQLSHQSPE
Chain of Dual specificity protein phosphatase 3 (P51452 whole entry): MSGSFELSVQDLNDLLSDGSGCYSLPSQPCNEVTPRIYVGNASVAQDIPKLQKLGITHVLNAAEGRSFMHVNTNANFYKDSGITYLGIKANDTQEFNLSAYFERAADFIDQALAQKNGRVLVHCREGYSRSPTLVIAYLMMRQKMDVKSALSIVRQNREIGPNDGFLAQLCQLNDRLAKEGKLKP

**Q.** For `COc1ccc(Cc2nnc(S)n2NC(=O)Nc2ccc(Cl)c(Cl)c2)cc1`, which EC50 [1] is on record?
**A.** Its EC50 is 3.39 µM (active).

**Q.** What about the EC50 (Streptokinase A) of the same molecule?
**A.** Its EC50 is 20.3 µM (active).

**Q.** What about the EC50 (Streptococcus) of the same molecule?
**A.** The EC50 was 63.3 µM (active).

**Q.** What about the IC50 [2] of the same molecule?
**A.** The IC50 was 76.2 µM (inactive).

**Q.** What about the IC50 [3] of the same molecule?
**A.** Its IC50 is 54.2 µM (inactive).

**Q.** What about the IC50 [4] of the same molecule?
**A.** The IC50 was 17.7 µM (inactive).

**Q.** With `CC(=O)N1CCOc2ccc(S(=O)(=O)NCc3ccc(F)cc3)cc21` as the molecule, how does the IC50 [5] read?
**A.** The IC50 was 9.32 µM (active).

**Q.** And the IC50 [6]?
**A.** Its IC50 is 4.64 µM (active).

**Q.** What about the IC50 [7] of the same molecule?
**A.** Its IC50 is 56.5 µM (inactive).

**Q.** What about the IC50 [8] of the same molecule?
**A.** The IC50 was 2.66 µM (active).

**Q.** And the AC50 (Caspase-6)?
**A.** Its AC50 is 11.2 µM (active).

**Q.** Which IC50 [5] does the source give for `O=C(CCc1ccccc1)NNC(=O)c1ccc(NC(=O)c2ccccc2)cc1` here?
**A.** Its IC50 is 6.27 µM (active).

**Q.** And the IC50 [6]?
**A.** Its IC50 is 3.98 µM (active).

**Q.** And the IC50 [7]?
**A.** The IC50 was 17.3 µM (active).

**Q.** What about the IC50 [8] of the same molecule?
**A.** The IC50 was 3.9 µM (active).

**Q.** What about the IC50 [9] of the same molecule?
**A.** Its IC50 is 24.9 µM (inactive).

**Q.** What about the IC50 [10] of the same molecule?
**A.** Its IC50 is 31.2 µM (inactive).

**Q.** Which IC50 [11] does the source give for `O=C(NC(=O)N1CCN(c2cccc(Cl)c2)CC1)c1ccccc1` here?
**A.** Its IC50 is 4.75 µM (active).
